From patent publication US4605670A, “Method for percutaneously administering metoclopramide” (priority 1984, dated 1986)
Where a name gives a salt, the structure may show the parent alone.

Type: in vitro ADME, male albino rats
Description: Rat full thickness skins were used in the diffusion cell method of Michaels, AlChE Journal, 21 [5], 985-996, (1975). The rat skin was mounted in the diffusion cell in a vertical position between the upstream and the downstream compartments; the exposed area of the skin approximated 4.15 cm^2.
The skin was excised from the shaved abdominal site of male albino rats weighing 250~300 g, and washed with normal saline solution after the subcutaneous fat was carefully removed with scissors.
An MCP solution of known concentration was added to the upper compartment of the cell, which was exposed to the epithelial side of the skin and a normal saline solution was placed in the lower compartment.
The penetration rate was studied in a thermostated bath at 30° C. At appropriate intervals samples were withdrawn from the lower compartment and subsequently analyzed for MCP concentration by standard analytical methods. This regimen was used in Examples 1 to 10.
Unless otherwise indicated, in all of the examples, the active agent was MCP.HCl, the MCP.HCl flux is given in terms of ug/cm^2 /8hrs, 25 volume percent of the adjuvant with respect to the adjuvant plus solvent volume was used in combination with 2.5 weight percent of active agent based on the weight of the adjuvant plus solvent; otherwise, all percents are volume percents based on adjuvant, solvent or adjuvant plus solvent volume, depending on the system.
Compositions were typically prepared by merely mixing the adjuvant and solvent together, then mixing the MCP.HCl in the mixture and then, if used, mixing the diol therein. The order of mixing is not important.

Row | MCP.HCl Flux [ug/cm^2 /8 hrs] | Molecule | MCP HCl flux with increasing MCP HCl concentration
1 |  | CCN(CC)CCNC(=O)c1cc(Cl)c(N)cc1OC [MCP HCl, metoclopramide.HCl, reference compound] | Flux increases linearly with increasing drug concentration
2 | 1296 | Hydroxy ethyl cellulose | 
3 | 843 | Hydroxy propyl cellulose | 
